Experimental findings from patent US12180158B1, “Crystalline fumarate salts of n-ethyl-2-(5-fluoro-1H-indol-3-yl)-n-methylethan-1-amine” (Gilgamesh Pharmaceuticals, Inc., priority 2023, dated 2024) are described below.

Series [1] is described as follows: Dynamic Vapor Sorption (DVS) isotherm. Format: physicochemical. To be noted: 25° C., FIG. 19. On the procedure:
Dynamic Vapor Sorption (DVS) was performed using a Q5000SA. The sample (5-15 mg) was loaded into a metallic quartz sample pan, suspended from a microbalance, and exposed to a humidified stream of nitrogen gas. Weight changes were relative to a matching empty reference pan opposite the sample, suspended from the microbalance. The sample was held for a minimum of 10 min at each level and only progressed to the next humidity level if there was <0.002% change in weight between measurements (interval: 5 s) or 45 min had elapsed (for 5-65% RH) or 2 h had elapsed (for 80 and 95% RH). The following programs were used: • 1—Equilibration at 50% RH • 2—50% to 5%. (50%, 35%, 20%, and 5%) • 3—5% to 95% (5%, 20%, 35%, 50%, 65%, 80%, and 95%) • 4—95% to 5% (95%, 80%, 65%, 50%, 35%, 20%, and 5%) • 5—5% to 50% (5%, 20%, 35%, and 50%) • 1—Equilibration at 50% RH • 2—50% to 2%. (50%, 40%, 30%, 20%, 10%, and 2%) • 3—2% to 75% (2%, 10%, 20%, 30%, 40%, 50%, 60%, 70% and 75%) • 4—75% to 2% (75%, 70%, 60%, 50%, 40%, 30%, 20%, 10% and 2%) • 5—2% to 50% (2%, 10%, 20%, 30%, 40% and 50%) • 1—Equilibration at 50% RH • 2—50% to 2%. (50%, 40%, 30%, 20%, 10%, and 2%) • 3—2% to 65% (2%, 10%, 20%, 30%, 40%, 50%, 60% and 65%) • 4—65% to 2% (65%, 60%, 50%, 40%, 30%, 20%, 10% and 2%) • 5—2% to 50% (2%, 10%, 20%, 30%, 40% and 50%). […]

The nature of series [2]: Exposure of dry cake to humidity, solid form checked by XRPD. Format: physicochemical. The conditions noted are these: for XRPD pattern, dry cake exposed to humidity: monofumarate solids exposed to humidity (90% RH/30° C.), monofumarate. On the procedure:
The two different polymorphic forms of N-ethyl-2-(5-fluoro-1H-indol-3-yl)-N-methylethan-1-amine monofumarate were discovered by reactive crystallization from various solvents. These crystallization experiments were performed by subjecting the in-situ created salt, made by evaporating an ethanol solution of free base and fumaric acid, to vigorous agitation in 10 volumes of the selected solvent. The agitated mixtures were heated to 45-50° C. and cooled to room temperature as necessary to induce crystallization. Form 1 was the predominant form from acetone, and the mixed ethanol/MTBE solvent system, whereas, Form 2 was produced from IPA solvent (see Table 7 below).
The polymorphic Form 1 of N-ethyl-2-(5-fluoro-1H-indol-3-yl)-N-methylethan-1-amine hemifumarate was discovered by reactive crystallization from various solvents. These crystallization experiments were performed by subjecting the in-situ created salt, made by evaporating an ethanol solution of free base and 0.55 equivalents of fumaric acid, to vigorous agitation in 10 volumes of the selected solvent. The agitated mixtures were heated to 45-50° C. and cooled to room temperature as necessary to induce crystallization. Only one form was observed from the brief crystallization screening study, as depicted in Table 10 below.

As for `CCN(C)CCc1c[nH]c2ccc(F)cc12.Cl` [hydrochloride Form 1, N-ethyl-2-(5-fluoro-1H-indol-3-yl)-N-methylethan-1-amine hydrochloride], in series [1], the “DVS isotherm behaviour (moisture sorption equilibrium)” value is “did not reach equilibrium at 75% RH”. As to `CCN(C)CCc1c[nH]c2ccc(F)cc12.O=C(O)/C=C/C(=O)O` [monofumarate Form 1, N-ethyl-2-(5-fluoro-1H-indol-3-yl)-N-methylethan-1-amine monofumarate], the “XRPD pattern, dry cake exposed to humidity” value in series [2] was “Form 1”. The same measure, in the same setting: next, `CCN(C)CCc1c[nH]c2ccc(F)cc12.O=C(O)/C=C/C(=O)O` [monofumarate Form 2, N-ethyl-2-(5-fluoro-1H-indol-3-yl)-N-methylethan-1-amine monofumarate]: “slowly converted to Form 1”. As for “N-ethyl-2-(5-fluoro-1H-indol-3-yl)-N-methylethan-1-amine hemifumarate [hemifumarate Form 1]”, in series [2] (hemi-fumarate dry solid from EtOH:MTBE (1:1 vol.), exposed to humidity), the “XRPD pattern, Humid” value is listed as “deliquescent”.
